Reference: patent US7049329B2, “Amines that inhibit a mammalian anandamide transporter, and methods of use thereof” (Sepracor Inc., priority 2002, dated 2006)
Where “and” joins values, the source holds several entries; their conditions need not be identical. Equal values may be shown once.

Tests used:
AT = conditions: background; read-out: IC50, inhibits AT; cited from earlier work
[1] = system: mammalian anandamide transporter; experiment: Anandamide uptake functional assay; type: cell-based, human; conditions: reference compound; U-937 cells, [3H]-AEA uptake; read-out: IC50 of AM-404 in this assay
Protocol: The characterization of anandamide uptake was performed with human monocytes (U-937 cells), using a 96 wells format (volume of the reaction 500 μL). Uptake of radiolabelled anandamide by U-937 cells (10^5 cells in 400 μL/well) occured during a 15 minutes incubation time at 37° C. in the presence of test compounds added in solution in 50 μL and 50 μL of [^3H]-AEA (2 nM)/AEA (98 nM).
U-937 cells and [^3H]-AEA/AEA were prepared in a Krebs buffer pH 7.4 containing 25 mM NaHCO3, 11 mM glucose, 50 μM ascorbic acid and 1% BSA. This incubation buffer is oxygenated for 5 minutes before incubation. Basal control is incubated for 15 minutes at 4° C., in absence of any test or reference compound to prevent uptake.
Following incubation, uptake was stopped by filtration through a “unifilter 96-well GFB plate” (Packard) washed with Krebs buffer containing 25 mM NaHCO3 to eliminate the free [^3H]-AEA. The radioactivity associated with the U-937 cells corresponding to the uptake was retained on the unifilter and was measured with a Topcount Microplate Scintillation Counter, (Packard) using Microscint 0 scintillation liquid (Packard).
FIGS. 3–5 depict certain compounds of the present invention and their IC50 values as determined in this assay. […]

mice = experiment: Hot plate test in mice (nociceptive reaction latency); type: in vivo; conditions: i.v., Anandamide 20 mg/kg, Compound 4 10 mg/kg, cut-off 30 seconds; for Nociceptive Reaction Latency, Mean: N 10; for Nociceptive Reaction Latency, individual mice: hot plate 56° C.
Protocol: This experiment assessed the analgesic effects of anandamide, compound 4, and a combination of anadamide and compound 4 in the hot plate test in mice.
One hundred (100) male Swiss mice ICO: OF1 (IOPS Caw) (Iffa Credo, France) weighing 17 g to 23 g were used in the study. The mice were housed in a temperature (19.5–24.5° C.) and relative humidity (45–65%) controlled room with a 12-h light/dark cycle, with ad libitum access to filtered tap-water and standard pelleted laboratory chow (U.A.R., France) throughout the study. Upon receipt at animal facilities, they were housed 20 per cage and at least a 5-day acclimatization period was observed. Animals were individually identified on their tails.
Ten groups of 10 animals each were used in this study. The individual groups were treated as set forth below. The doses used are expressed in terms of free active substance. The test and reference substances and the vehicle were administered by intravenous route (i.v) in a random order with a volume of 5 mL/kg. Anandamide and compound 4 were concomitantly administered as a mixture by intravenous route under a volume of 10 mL/kg (Groups 3, 7 and 10).
Twenty, thirty and sixty minutes after dosing, a given mouse was placed on a metallic hot plate maintained at 56±0.2° C. The nociceptive reaction latency, characterized by a licking reflex of the forepaws or by a jumping off the hot plate, was recorded. The cut-off time was set to 30 seconds. See Eddy NB, Touchberry CF, Lieberman JE. “Synthetic analgesics.
The mean results from these experiments are presented graphically in FIG. 6. The results tabulated in FIG. 6 are expressed as mean±sem. ANOVA (2 ways): time/treatment's effect as well as interaction between the two, for vehicle, anandamide and association groups. Dunnett's test: * indicates a significant difference in comparison with the vehicle-treated group for P<0.05. Dunnett's test :† indicates a significant difference in comparison with the same treated group at t−60 min for P<0.05. ANOVA (1 ways): at t−30 min for vehicle, anandamide, compound 4 and association groups. Dunnett's test: ° indicates a significant difference in comparison with the vehicle-treated group for P<0.05. Vehicle: Saline+20% DMSO; n=10 mice per groups.

Row | SMILES | IC50 (AT) | IC50 [1] | Nociceptive Reaction Latency, Mean (mice; 20 minutes post-administration) | Nociceptive Reaction Latency, individual mice (mice; 20 minutes post-administration) | Nociceptive Reaction Latency, Mean (mice; 30 minutes post-administration) | Nociceptive Reaction Latency, individual mice (mice; 30 minutes post-administration) | Nociceptive Reaction Latency, Mean (mice; 60 minutes post-administration) | Nociceptive Reaction Latency, individual mice (mice; 60 minutes post-administration)
1 | CCCCC/C=C\C/C=C\C/C=C\C/C=C\CCCC(=O)Nc1ccc(O)cc1 [AM-404, N-(4-hydroxyphenyl)arachidonamide] | ~2 µM | 2 µM |  |  |  |  |  | 
2 | CCCCC/C=C\C/C=C\C/C=C\C/C=C\CCCC(=O)NCCO [Anandamide, N-(2-hydroxyethyl)arachidonamide] |  |  | 8.9 s | 10.3 s and 21.2 s and 6.3 s and 8.8 s and 4.9 s and 5.3 s and 8.1 s and 7.8 s and 5.1 s and 11.5 s | 8.1 s | 8.9 s and 7.5 s and 10.7 s and 7.9 s and 5.2 s and 9.7 s and 10 s and 7.1 s and 6.5 s and 7.8 s | 11.7 s | 6.9 s and 11.1 s and 10.1 s and 9.3 s and 11.7 s and 8.9 s and 16.1 s and 13.5 s and 24.4 s and 4.6 s
3 | C=CCOc1ccc(CN(CC=Cc2ccccc2)CCOC)cc1 [Compound 4, N-(4-Allyloxybenzyl)-N-(2-methoxyethyl)-N-(3-phenyl-allyl)amine] |  |  |  |  | 10.2 s | 10 s and 12.8 s and 14.5 s and 4.5 s and 10.4 s and 4.2 s and 9.6 s and 13.5 s and 16.3 s and 6.1 s |  | 
